From US20230390396A1, “COMPOSITION CONTAINING 5-AMINOLEVULINIC ACID HYDROCHLORIDE” (priority 2020, published 2023) come the findings set out here.

Assay [1] concerns patient's brain tumor area. The assay can be described thus: Fluorescence visualization of brain tumor after drinking 5-aminolevulinic acid hydrochloride. It is filed as in vivo, human. The settings on record: 19 mg/kg oral, 3 hours before induction of anesthesia, operation 6 hours after drinking; FIG. 1.
Assay [2] is described as follows: Antioxidative activity (DPPH radical scavenging, modified Blois method). The settings on record: 2 mL sample + 2 mL 0.2 mM DPPH, 30 minutes, absorbance at 517 nm. Here is the method:
Radical scavenging activity was used using the cosmetic composition for acne skin improvement according to the example as a sample.
The antioxidative activity (electron donation ability, EDA %) of a sample was measured by modifying the Blois method. 2 mL of the sample was mixed with 2 mL of a 0.2 mM DPPH(1,1-diphenyl-2-picryl hydrazyl) solution, and then allowed to stand for 30 minutes, followed by measuring an absorbance at 517 nm.
The radical scavenging activity was expressed as the rate of decrease in absorbance between the sample-added group and the non-added group. The radical scavenging activity was calculated according to the following equation, and results are summarized in [Table 2] below. As a sample for the control, BHT (synthetic antioxidant) was used.
Radical scavenging activity (%)=(1−Absorbance of sample-added group/Absorbance of non-added group)×100
A general note: Loss of DPPH colour is used to gauge radical scavenging.

Consider `Cl.NCC(=O)CCC(=O)O` [5-aminolevulinic acid hydrochloride], for which, in assay [1], the “Fluorescence of patient's brain tumor area at surgery” value was “emitting a fluorescent color”.
As to `Cc1cc(C(C)(C)C)c(O)c(C(C)(C)C)c1` [Control, BHT], the Radical scavenging activity in assay [2] was determined as 55.3 ± 0.45%.
